# Active and inactive are the calls of the source.
# Key:
# BJ [1] = assay: cytotoxicity toward BJ-TERT fibroblasts, dose response, cell-based, RAS-independent, luminescence (AID 1933); type: functional; conditions: Homo sapiens
# BJ [2] = assay: cells; type: functional, cell-based; conditions: Homo sapiens
# [3] = HEp-2 cell cytotoxicity, dose response, cytotoxicity control for RSV inhibitor project, HTS (AID 2410); type: functional; conditions: human respiratory syncytial virus
# BJ [4] = assay: cytotoxicity toward Ras-transformed BJeLR fibroblasts, dose response, cell-based, alamar blue fluorescence, cherrypicked samples (AID 2631); type: functional; conditions: Homo sapiens;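 further: confirmatory dose-response assay in RAS-dependent BJ fibroblasts engineered with TERT, LT and ST, with cytotoxicity read by fluorescence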
# [5] = cytotoxicity toward DRD oncogenic fibroblasts, dose response, cell-based, non-viral oncogenic, luminescence (AID 1934); type: functional; conditions: Homo sapiens
# [6] = target: Adenosylmethionine-8-amino-7-oxononanoate aminotransferase (Mycobacterium tuberculosis, UniProt P9WQ81); assay: Mycobacterium tuberculosis BioA enzyme inhibitor Measured in Biochemical System Using Plate Reader - 2163-02_Inhibitor_Dose_CherryPick_Activity.; type: functional, Mycobacterium tuberculosis UT205
# Sequence of Adenosylmethionine-8-amino-7-oxononanoate aminotransferase (P9WQ81 whole entry): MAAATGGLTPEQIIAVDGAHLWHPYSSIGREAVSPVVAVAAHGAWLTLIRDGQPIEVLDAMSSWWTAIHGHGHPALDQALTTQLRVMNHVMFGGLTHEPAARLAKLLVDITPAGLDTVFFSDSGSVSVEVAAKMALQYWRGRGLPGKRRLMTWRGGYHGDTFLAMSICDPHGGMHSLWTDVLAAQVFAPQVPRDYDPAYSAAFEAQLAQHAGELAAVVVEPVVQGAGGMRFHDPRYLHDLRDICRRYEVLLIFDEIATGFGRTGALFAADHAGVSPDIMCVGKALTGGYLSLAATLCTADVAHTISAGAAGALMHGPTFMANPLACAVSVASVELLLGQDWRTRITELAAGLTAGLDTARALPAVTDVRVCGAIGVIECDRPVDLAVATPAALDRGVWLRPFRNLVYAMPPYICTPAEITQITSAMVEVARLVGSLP
# [7] = AlphaScreen signal interference compounds, dose response, artefact control for ARNT-TACC3 interaction inhibitor project, biochemical, luminescence, cherry-pick (AID 651705); type: functional;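 further: AlphaScreen bead proximity signal that flags compounds interfering with the detection technology; potency reflects signal decrease which marks the compound as an assay artifact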
# Nonstructural protein 1 = Nonstructural protein 1 (Influenza A virus, UniProt Q194T2); type: functional, Influenza A virus (A/California/07/2009(H1N1))
# Sequence of Nonstructural protein 1 (Q194T2 whole entry): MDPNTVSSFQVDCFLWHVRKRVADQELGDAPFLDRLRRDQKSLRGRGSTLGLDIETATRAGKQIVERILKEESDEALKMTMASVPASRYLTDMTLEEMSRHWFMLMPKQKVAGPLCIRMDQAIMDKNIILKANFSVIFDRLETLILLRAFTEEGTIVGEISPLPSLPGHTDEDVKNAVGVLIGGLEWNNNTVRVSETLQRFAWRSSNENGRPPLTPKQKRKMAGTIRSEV
# [8] = Shn3 3'UTR reporter inhibitors, dose response, cell-based, Clone20 osteoblasts, firefly luciferase, cherry-picked (AID 624132); type: functional;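 further: firefly luciferase luminescence from reporter carrying the Shn3 3'UTR in osteoblasts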
# [9] = control 3'UTR Renilla luciferase suppression, dose response, counter-screen for Shn3 inhibitor project, cell-based, Clone20-Shn3RL, cherry-picked (AID 624133); type: functional
# [10] = HepG2 cell cytotoxicity, dose response, cytotoxicity control for Shn3 inhibitor project, CellTiter-Glo, cherry-picked (AID 624134); type: functional, cell-based
# Protein Wnt-3a = Protein Wnt-3a (Mus musculus, UniProt P27467); assay: Wnt3a-driven reporter signaling inhibition, dose response, selectivity assay for Gli-SUFU antagonist project, Wnt-LIGHT cells, luminescence (AID 651570); type: functional; conditions: read-out: IC50_Mean;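 further: Wnt-LIGHT reporter cells stimulated with conditioned medium from Wnt3a-producing cells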
# Sequence of Protein Wnt-3a (P27467 whole entry): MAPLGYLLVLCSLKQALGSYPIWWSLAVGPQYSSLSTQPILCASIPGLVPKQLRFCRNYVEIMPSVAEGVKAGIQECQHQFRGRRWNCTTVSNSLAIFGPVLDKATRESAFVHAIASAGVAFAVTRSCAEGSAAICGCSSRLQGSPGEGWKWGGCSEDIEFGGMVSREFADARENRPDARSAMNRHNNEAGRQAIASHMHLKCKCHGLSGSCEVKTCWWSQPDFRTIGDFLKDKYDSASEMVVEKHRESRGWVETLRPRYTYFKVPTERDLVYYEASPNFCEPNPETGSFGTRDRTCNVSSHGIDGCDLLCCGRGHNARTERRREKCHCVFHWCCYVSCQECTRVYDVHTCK
# HEK293 [11] = assay: cells; type: functional, cell-based; conditions: Homo sapiens
# HEK293 [12] = assay: NOD1 signaling inhibitors, primary screen, cell-based, luminescence, uHTS (AID 1578); type: functional; conditions: Homo sapiens
# HEK293 [13] = assay: NOD2 signaling inhibitors in MDP-stimulated cells, cell-based, uHTS, luminescence (AID 2001); type: functional; conditions: Homo sapiens
# BJ [14] = assay: cytotoxicity toward BJ-TERT-LT-ST fibroblasts, dose response, cell-based, RAS-independent, luminescence (AID 1935); type: functional; conditions: Homo sapiens;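 further: BJ fibroblasts immortalized with TERT plus LT and ST oncogenes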
# HEK293 [15] = assay: cells; type: functional, cell-based; conditions: Homo sapiens; remark: listed apart in the source
smiles,measurement,setting,value
C[C@@H]1C[C@H]2OC(=O)C3(CO3)[C@H]2[C@H](O)[C@]2(C)C(=O)C3OC3[C@@H]12 (some centres not stated),EC50,BJ [1],17 µM (active)
same,EC50,BJ [2],14.3 µM (active)
same,CC50,[3],15.9 µM (active)
same,EC50,BJ [4],> 133 µM (inactive)
same,EC50,[5],14.2 µM (active)
O=C1CCCc2c1cc(C(=O)NCc1ccco1)c(=O)n2-c1ccc(Cl)cc1,AC50,[6],3.08 µM (active)
Cc1ccc(-n2ncc3c2CC(C)(C)CC3NC(=O)CCc2cccnc2)cc1 (configuration not stated),AC50,[6],9.11 µM (active)
NC(=NOC(=O)Cc1ccc([N+](=O)[O-])cc1)c1ccccn1,AC50,[7],78.8 µM (active)
same,IC50,Nonstructural protein 1,32.1 µM (active)
CC(Sc1nc2ccccc2c(=O)n1C)C(=O)NC1CCCCC1C (configuration not stated),AC50,[8],3.46 µM (active)
same,AC50,[9],3.78 µM (active)
same,AC50,[10],26.2 µM (active)
same,IC50,Protein Wnt-3a,4.15 µM (active)
Cc1ccc(Nc2nc(N)nc(CCl)n2)c(C)c1,EC50,BJ [1],< 0.12 µM (active)
same,IC50,HEK293 [11],> 20 µM (inactive)
same,EC50,HEK293 [12],13.9 µM (active)
same,IC50,HEK293 [13],10.5 µM (inactive)
same,EC50,BJ [2],1.05 µM (active)
same,EC50,BJ [14],10.4 µM (active)
same,EC50,BJ [4],4.45 µM (active)
same,EC50,[5],0.423 µM (active)
same,IC50,HEK293 [15],12.8 µM (active)

# Source: ChEMBL document CHEMBL1201862, “PubChem BioAssay data set” (2004)
